Measured values as given in PubChem BioAssay AID1845210 (Molecular Pharmacology Branch, DTP, NCI, 2023).

System: NCI-H226 complex tumor spheroids, viability
Experiment: Anticancer human tumor NCI-H226 cell line growth inhibition;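 note: spheroids exposed to compound for 7 days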;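 for viability, T/C: 100% = DMSO vehicle control viability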
Conditions: for IC50: curve of first compound; for viability, T/C: stronger effect = lower value
Summary of the method: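 Complex tumor spheroids combined malignant cells with endothelial cells and mesenchymal stem cells. DNA-damaging drugs and DNA repair inhibitors were tested alone and in combination, at half-log dilutions down from clinical Cmax (top 10 microM if Cmax unknown), 0.25% DMSO final.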

[1] = second compound 1 µM, first compound 0.0316 µM
[2] = second compound 1 µM, first compound 0.1 µM
[3] = second compound 1 µM, first compound 0.316 µM
[4] = second compound 1 µM, first compound 1 µM
[5] = second compound 1 µM, first compound 3.16 µM
[6] = second compound 1 µM, first compound 10 µM
[7] = second compound 3.16 µM, first compound 0.0316 µM
[8] = second compound 3.16 µM, first compound 0.1 µM
[9] = second compound 3.16 µM, first compound 0.316 µM
[10] = second compound 3.16 µM, first compound 1 µM
[11] = second compound 3.16 µM, first compound 3.16 µM
[12] = second compound 3.16 µM, first compound 10 µM
[13] = second compound 10 µM, first compound 0.0316 µM
[14] = second compound 10 µM, first compound 0.1 µM
[15] = second compound 10 µM, first compound 0.316 µM
[16] = second compound 10 µM, first compound 1 µM
[17] = second compound 10 µM, first compound 3.16 µM
[18] = second compound 10 µM, first compound 10 µM
[19] = second compound 31.6 µM, first compound 0.0316 µM
[20] = second compound 31.6 µM, first compound 0.1 µM
[21] = second compound 31.6 µM, first compound 0.316 µM
[22] = second compound 31.6 µM, first compound 1 µM
[23] = second compound 31.6 µM, first compound 3.16 µM
[24] = second compound 31.6 µM, first compound 10 µM
[25] = second compound 100 µM, first compound 0.0316 µM
[26] = second compound 100 µM, first compound 0.1 µM
[27] = second compound 100 µM, first compound 0.316 µM
[28] = second compound 100 µM, first compound 1 µM
[29] = second compound 100 µM, first compound 3.16 µM
[30] = second compound 100 µM, first compound 10 µM

Cc1cc(C)c(CNC(=O)c2cc(-c3ccc(CN4CCOCC4)cc3)cc3c2cnn3C2CCCC2)c(=O)[nH]1 + Cn1nnc2c(C(N)=O)ncn2c1=O
IC50 (second compound 1 µM): > 10 µM
IC50 (second compound 3.16 µM): > 10 µM
IC50 (second compound 10 µM): > 10 µM
IC50 (second compound 31.6 µM): > 10 µM
IC50 (second compound 100 µM): > 10 µM
viability, T/C [1]: 113%
viability, T/C [2]: 125%
viability, T/C [3]: 106%
viability, T/C [4]: 115%
viability, T/C [5]: 131%
viability, T/C [6]: 102%
viability, T/C [7]: 125%
viability, T/C [8]: 135%
viability, T/C [9]: 113%
viability, T/C [10]: 113%
viability, T/C [11]: 97.4%
viability, T/C [12]: 119%
viability, T/C [13]: 128%
viability, T/C [14]: 136%
viability, T/C [15]: 122%
viability, T/C [16]: 109%
viability, T/C [17]: 111%
viability, T/C [18]: 125%
viability, T/C [19]: 123%
viability, T/C [20]: 108%
viability, T/C [21]: 116%
viability, T/C [22]: 109%
viability, T/C [23]: 103%
viability, T/C [24]: 144%
viability, T/C [25]: 108%
viability, T/C [26]: 114%
viability, T/C [27]: 122%
viability, T/C [28]: 130%
viability, T/C [29]: 110%
viability, T/C [30]: 132%

Cc1sc2c(c1C)C(c1ccc(Cl)cc1)=NC(CC(=O)Nc1ccc(O)cc1)c1nnc(C)n1-2 (stereo not given) + Cn1nnc2c(C(N)=O)ncn2c1=O
IC50 (second compound 1 µM): 0.959 µM
IC50 (second compound 3.16 µM): 0.808 µM
IC50 (second compound 10 µM): 1 µM
IC50 (second compound 31.6 µM): 1.27 µM
IC50 (second compound 100 µM): 1.57 µM
viability, T/C (second compound 1 µM, first compound 0.00949 µM): 83.4%
viability, T/C (second compound 1 µM, first compound 0.03 µM): 85%
viability, T/C (second compound 1 µM, first compound 0.0949 µM): 74.9%
viability, T/C (second compound 1 µM, first compound 0.3 µM): 68.4%
viability, T/C (second compound 1 µM, first compound 0.949 µM): 48.8%
viability, T/C (second compound 1 µM, first compound 3 µM): 40.3%
viability, T/C (second compound 3.16 µM, first compound 0.00949 µM): 79.2%
viability, T/C (second compound 3.16 µM, first compound 0.03 µM): 78.7%
viability, T/C (second compound 3.16 µM, first compound 0.0949 µM): 81.1%
viability, T/C (second compound 3.16 µM, first compound 0.3 µM): 63.2%
viability, T/C (second compound 3.16 µM, first compound 0.949 µM): 49.4%
viability, T/C (second compound 3.16 µM, first compound 3 µM): 39.6%
viability, T/C (second compound 10 µM, first compound 0.00949 µM): 90.6%
viability, T/C (second compound 10 µM, first compound 0.03 µM): 78.3%
viability, T/C (second compound 10 µM, first compound 0.0949 µM): 76.8%
viability, T/C (second compound 10 µM, first compound 0.3 µM): 66.4%
viability, T/C (second compound 10 µM, first compound 0.949 µM): 46.8%
viability, T/C (second compound 10 µM, first compound 3 µM): 42.5%
viability, T/C (second compound 31.6 µM, first compound 0.00949 µM): 87.1%
viability, T/C (second compound 31.6 µM, first compound 0.03 µM): 80.2%
viability, T/C (second compound 31.6 µM, first compound 0.0949 µM): 70.2%
viability, T/C (second compound 31.6 µM, first compound 0.3 µM): 71%
viability, T/C (second compound 31.6 µM, first compound 0.949 µM): 52%
viability, T/C (second compound 31.6 µM, first compound 3 µM): 38.5%
viability, T/C (second compound 100 µM, first compound 0.00949 µM): 92.7%
viability, T/C (second compound 100 µM, first compound 0.03 µM): 80.2%
viability, T/C (second compound 100 µM, first compound 0.0949 µM): 84.8%
viability, T/C (second compound 100 µM, first compound 0.3 µM): 67.8%
viability, T/C (second compound 100 µM, first compound 0.949 µM): 55.4%
viability, T/C (second compound 100 µM, first compound 3 µM): 42.5%

[2H]c1nc(C)nc([2H])c1-c1cc(NC[C@@H](C)c2cccc3c(C(=O)NC)ccnc23)ncn1 + Cn1nnc2c(C(N)=O)ncn2c1=O
IC50 (second compound 1 µM): > 10 µM
IC50 (second compound 3.16 µM): > 10 µM
IC50 (second compound 10 µM): > 10 µM
IC50 (second compound 31.6 µM): > 10 µM
IC50 (second compound 100 µM): > 10 µM
viability, T/C [1]: 115%
viability, T/C [2]: 107%
viability, T/C [3]: 118%
viability, T/C [4]: 112%
viability, T/C [5]: 114%
viability, T/C [6]: 121%
viability, T/C [7]: 114%
viability, T/C [8]: 114%
viability, T/C [9]: 113%
viability, T/C [10]: 101%
viability, T/C [11]: 123%
viability, T/C [12]: 122%
viability, T/C [13]: 112%
viability, T/C [14]: 122%
viability, T/C [15]: 115%
viability, T/C [16]: 110%
viability, T/C [17]: 113%
viability, T/C [18]: 115%
viability, T/C [19]: 103%
viability, T/C [20]: 102%
viability, T/C [21]: 119%
viability, T/C [22]: 120%
viability, T/C [23]: 123%
viability, T/C [24]: 116%
viability, T/C [25]: 141%
viability, T/C [26]: 129%
viability, T/C [27]: 112%
viability, T/C [28]: 116%
viability, T/C [29]: 117%
viability, T/C [30]: 121%
